From PMC8070004, “Isorhamnetin Ameliorates Dry Eye Disease via CFTR Activation in Mice” (International Journal of Molecular Sciences, 2021)

How the values were obtained:
human CFTR = biological target: T1, human CFTR (Homo sapiens, UniProt P13569); experiment: YFP quenching assay in CHO-K1 cells expressing CFTR and halide sensor YFP; type: cell-based; conditions: isorhamnetin applied 10 min prior to I- addition
T1 construct: expressed in transfected cells; host or cells: CHO-K1
Protocol: CHO cells expressing wild-type CFTR with the halide sensor YFP-H148Q/I152L were plated in 96-well, black-walled microplates (Corning Inc., Corning, NY, USA) at a density of 2 × 10^4 cells per well. CHO-WT-CFTR-YFP cells were incubated for 48 h at 37 °C. Assays were done using FLUO star Omega microplate reader (BMG Labtech, Ortenberg, Germany) and MARS Data Analysis Software (BMG Labtech). Briefly, each well of a 96-well plate was washed three times in PBS (200 µL/wash). Then, 100 µL PBS was added to each well. Test compounds (1 µL) were added to each well at final concentration of 25 µM. After 10 min, 96-well plates were transferred to the microplate reader preheated to 37 °C for fluorescence assay. Each well was assayed individually for CFTR-mediated I^- influx by recording fluorescence continuously (400 ms per point) for 2 s (baseline). Then, 100 µL of 140 mM I^- solution were added at 2 s and then YFP fluorescence was recorded for 14 s. Initial iodide influx rate was determined from the initial slope of fluorescence decrease, by nonlinear regression, following infusion of iodide.

hERG potassium channel = biological target: T2, hERG potassium channel (Homo sapiens, UniProt Q12809); experiment: FluxOR potassium ion channel assay in HEK293T cells expressing hERG; type: cell-based; conditions: 30 μM pretreated for 10 min
T2 construct: expressed in transfected cells; host or cells: HEK293 / HEK293T
T2 sequence (Q12809 whole entry): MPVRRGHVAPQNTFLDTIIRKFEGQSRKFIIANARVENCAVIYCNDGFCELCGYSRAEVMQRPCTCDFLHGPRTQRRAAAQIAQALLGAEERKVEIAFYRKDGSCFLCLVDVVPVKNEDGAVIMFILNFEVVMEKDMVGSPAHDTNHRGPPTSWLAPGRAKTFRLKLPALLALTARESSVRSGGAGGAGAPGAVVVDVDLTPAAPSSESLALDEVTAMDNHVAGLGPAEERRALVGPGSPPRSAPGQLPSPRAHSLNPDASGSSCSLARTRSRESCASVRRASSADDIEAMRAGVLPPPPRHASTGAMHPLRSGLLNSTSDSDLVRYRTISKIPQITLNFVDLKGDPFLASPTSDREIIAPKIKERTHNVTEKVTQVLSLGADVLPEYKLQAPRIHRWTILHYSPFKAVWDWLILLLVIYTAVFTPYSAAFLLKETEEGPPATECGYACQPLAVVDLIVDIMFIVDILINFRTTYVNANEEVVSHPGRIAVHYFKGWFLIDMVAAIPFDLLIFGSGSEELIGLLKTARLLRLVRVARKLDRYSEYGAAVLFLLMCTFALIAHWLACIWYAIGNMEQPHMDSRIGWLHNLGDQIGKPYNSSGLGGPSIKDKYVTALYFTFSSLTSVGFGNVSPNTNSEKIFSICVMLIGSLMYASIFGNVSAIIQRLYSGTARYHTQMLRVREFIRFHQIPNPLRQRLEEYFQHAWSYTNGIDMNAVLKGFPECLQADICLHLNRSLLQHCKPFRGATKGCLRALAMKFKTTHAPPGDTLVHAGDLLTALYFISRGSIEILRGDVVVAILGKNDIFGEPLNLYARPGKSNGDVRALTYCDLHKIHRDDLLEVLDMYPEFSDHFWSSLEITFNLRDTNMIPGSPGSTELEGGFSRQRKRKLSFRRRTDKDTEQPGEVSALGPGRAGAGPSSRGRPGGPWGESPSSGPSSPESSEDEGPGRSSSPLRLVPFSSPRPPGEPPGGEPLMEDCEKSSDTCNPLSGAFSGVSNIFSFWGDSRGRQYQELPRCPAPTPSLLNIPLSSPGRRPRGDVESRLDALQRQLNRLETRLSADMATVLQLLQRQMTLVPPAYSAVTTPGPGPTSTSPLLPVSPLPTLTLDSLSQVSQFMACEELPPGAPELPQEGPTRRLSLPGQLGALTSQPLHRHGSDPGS
Protocol: HEK293 cells stably expressing human Kv11.1 (hERG) were plated in 96-well plates. After 48 h, the cells were incubated at 28 °C for 4 h to enhance membrane expression of hERG. The culture medium was replaced with 80 μL/well of FluxOR (Invitrogen) loading buffer and incubated for 1 h at 37 °C in the dark. After removal of the loading buffer, 100 µL of assay buffer were added to each well. To measure the effect of isorhamnetin on hERG channels, the cells were pretreated with isorhamnetin for 10 min. FluxOR fluorescence (excitation/emission: 490/525 nm) was recorded for 4 s before addition of 20 μL of stimulus buffer containing thallium ions, and the fluorescence was monitored. FluxOR fluorescence was recorded and analyzed using FLUOstar Omega Microplate Reader (BMG Labtech) and MARS Data Analysis Software (BMG Labtech). All buffers were prepared according to the manufacturer’s instructions.

T1 sequence (P13569 whole entry): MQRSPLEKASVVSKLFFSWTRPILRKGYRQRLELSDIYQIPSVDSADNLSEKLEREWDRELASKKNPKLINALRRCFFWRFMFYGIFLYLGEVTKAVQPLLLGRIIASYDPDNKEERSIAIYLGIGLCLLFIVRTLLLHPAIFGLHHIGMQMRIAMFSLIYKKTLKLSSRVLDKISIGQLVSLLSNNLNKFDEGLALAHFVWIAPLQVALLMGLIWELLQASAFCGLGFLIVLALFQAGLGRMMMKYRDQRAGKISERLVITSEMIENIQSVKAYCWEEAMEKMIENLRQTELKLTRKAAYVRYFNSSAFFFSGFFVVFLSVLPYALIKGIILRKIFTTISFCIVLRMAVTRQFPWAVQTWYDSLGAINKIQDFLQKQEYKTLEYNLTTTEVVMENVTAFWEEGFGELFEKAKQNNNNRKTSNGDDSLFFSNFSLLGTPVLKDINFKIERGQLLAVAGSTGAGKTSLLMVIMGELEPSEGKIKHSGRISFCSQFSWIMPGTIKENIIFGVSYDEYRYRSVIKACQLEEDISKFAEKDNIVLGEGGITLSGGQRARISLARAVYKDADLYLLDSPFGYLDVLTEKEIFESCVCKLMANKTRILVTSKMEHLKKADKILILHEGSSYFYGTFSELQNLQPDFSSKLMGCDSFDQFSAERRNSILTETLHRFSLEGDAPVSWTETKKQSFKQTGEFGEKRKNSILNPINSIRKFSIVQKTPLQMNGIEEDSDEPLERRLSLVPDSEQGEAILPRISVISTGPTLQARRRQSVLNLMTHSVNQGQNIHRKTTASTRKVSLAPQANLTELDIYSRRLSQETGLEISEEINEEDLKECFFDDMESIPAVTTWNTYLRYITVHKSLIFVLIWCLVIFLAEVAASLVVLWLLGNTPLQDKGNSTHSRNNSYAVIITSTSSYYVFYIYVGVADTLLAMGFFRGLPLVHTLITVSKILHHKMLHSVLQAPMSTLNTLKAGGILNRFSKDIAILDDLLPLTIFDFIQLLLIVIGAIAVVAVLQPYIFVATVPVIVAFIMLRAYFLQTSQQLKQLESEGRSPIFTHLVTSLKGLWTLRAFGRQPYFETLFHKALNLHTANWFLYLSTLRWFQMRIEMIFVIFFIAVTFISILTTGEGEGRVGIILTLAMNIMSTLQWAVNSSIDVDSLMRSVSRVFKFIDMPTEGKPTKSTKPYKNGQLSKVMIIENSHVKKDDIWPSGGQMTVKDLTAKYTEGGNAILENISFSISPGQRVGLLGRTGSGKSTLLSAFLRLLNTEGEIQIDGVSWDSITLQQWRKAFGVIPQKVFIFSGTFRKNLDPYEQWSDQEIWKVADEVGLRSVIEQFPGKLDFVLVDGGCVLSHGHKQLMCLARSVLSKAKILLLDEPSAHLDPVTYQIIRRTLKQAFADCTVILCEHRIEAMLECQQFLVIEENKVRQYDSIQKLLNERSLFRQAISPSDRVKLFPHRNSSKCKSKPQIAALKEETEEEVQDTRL

For `COc1cc(-c2oc3cc(O)cc(O)c3c(=O)c2O)ccc1O` [isorhamnetin], the “CFTR chloride channel activity (YFP quenching)” value (human CFTR) was “significantly increased” and the hERG channel activity (hERG potassium channel) was “did not affect”.
